Laboratory results reported in ChEMBL document CHEMBL2046355 (Bioorg Med Chem Lett, 2012).
pIC50: −log10 of the molar value. Active and inactive are the calls of the source. The rule behind the calls is not given here.

Assays:
[1] = target: T1, Solute carrier family 12 member 5 (Homo sapiens, UniProt Q9H2X9); test: Antagonist activity at KCC2 expressed in human HEK293 cells assessed as decrease in Tl-stimulated fluorescence increase after 8 mins by fluorescence analysis; type: functional, cell-based
T1 sequence (Q9H2X9 whole entry): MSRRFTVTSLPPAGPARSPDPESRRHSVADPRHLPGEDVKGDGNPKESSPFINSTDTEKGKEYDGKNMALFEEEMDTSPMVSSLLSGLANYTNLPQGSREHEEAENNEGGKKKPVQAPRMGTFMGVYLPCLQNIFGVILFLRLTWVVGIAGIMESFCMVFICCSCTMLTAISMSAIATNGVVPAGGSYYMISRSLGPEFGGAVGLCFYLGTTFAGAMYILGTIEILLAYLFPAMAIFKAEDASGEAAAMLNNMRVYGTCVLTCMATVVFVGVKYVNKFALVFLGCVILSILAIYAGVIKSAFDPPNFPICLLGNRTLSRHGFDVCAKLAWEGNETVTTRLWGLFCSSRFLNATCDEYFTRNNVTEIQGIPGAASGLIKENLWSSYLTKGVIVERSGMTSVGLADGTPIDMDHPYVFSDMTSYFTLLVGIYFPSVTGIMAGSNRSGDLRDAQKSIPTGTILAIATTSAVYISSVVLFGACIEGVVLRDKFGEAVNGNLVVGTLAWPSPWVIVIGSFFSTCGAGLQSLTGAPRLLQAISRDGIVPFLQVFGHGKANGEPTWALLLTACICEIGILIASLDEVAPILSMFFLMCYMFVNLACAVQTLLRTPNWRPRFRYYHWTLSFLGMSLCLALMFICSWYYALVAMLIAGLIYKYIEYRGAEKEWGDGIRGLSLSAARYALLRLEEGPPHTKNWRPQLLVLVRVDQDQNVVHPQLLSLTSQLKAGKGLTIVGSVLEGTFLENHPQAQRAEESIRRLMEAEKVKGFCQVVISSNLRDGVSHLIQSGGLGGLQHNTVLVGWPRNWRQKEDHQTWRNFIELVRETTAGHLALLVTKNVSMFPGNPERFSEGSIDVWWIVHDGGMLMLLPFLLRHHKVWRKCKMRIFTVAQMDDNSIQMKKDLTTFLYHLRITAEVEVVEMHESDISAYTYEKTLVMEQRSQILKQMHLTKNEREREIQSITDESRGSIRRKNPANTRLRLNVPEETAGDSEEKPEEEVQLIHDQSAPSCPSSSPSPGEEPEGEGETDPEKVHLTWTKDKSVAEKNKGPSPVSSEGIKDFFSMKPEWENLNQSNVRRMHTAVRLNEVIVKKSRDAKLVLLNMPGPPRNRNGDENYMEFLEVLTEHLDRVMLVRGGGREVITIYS

[2] = target: T2, Solute carrier family 12 member 5 (Homo sapiens) (UniProt Q9H2X9); test: Antagonist activity at KCC2 expressed in human HEK293 cells assessed as decrease in Tl-stimulated fluorescence increase at 2 uM after 8 mins by fluorescence analysis; type: functional, cell-based
T2 sequence (whole entry): T1 sequence (Q9H2X9 whole entry)

[3] = target: T2, Solute carrier family 12 member 5 (Homo sapiens); test: Antagonist activity at KCC2 expressed in human HEK293 cells assessed as [86Rb] uptake after 30 mins by scintillation counting; type: functional, cell-based
Cytochrome P450 2C9 = Cytochrome P450 2C9 (Homo sapiens, UniProt P11712); test: Inhibition of CYP2C9 in human liver microsomes; type: ADME, Microsome
Cytochrome P450 1A2 = target: T3, Cytochrome P450 1A2 (Homo sapiens, UniProt P05177); test: Inhibition of CYP1A2 in human liver microsomes; type: ADME, Microsome
T3 sequence (P05177 whole entry): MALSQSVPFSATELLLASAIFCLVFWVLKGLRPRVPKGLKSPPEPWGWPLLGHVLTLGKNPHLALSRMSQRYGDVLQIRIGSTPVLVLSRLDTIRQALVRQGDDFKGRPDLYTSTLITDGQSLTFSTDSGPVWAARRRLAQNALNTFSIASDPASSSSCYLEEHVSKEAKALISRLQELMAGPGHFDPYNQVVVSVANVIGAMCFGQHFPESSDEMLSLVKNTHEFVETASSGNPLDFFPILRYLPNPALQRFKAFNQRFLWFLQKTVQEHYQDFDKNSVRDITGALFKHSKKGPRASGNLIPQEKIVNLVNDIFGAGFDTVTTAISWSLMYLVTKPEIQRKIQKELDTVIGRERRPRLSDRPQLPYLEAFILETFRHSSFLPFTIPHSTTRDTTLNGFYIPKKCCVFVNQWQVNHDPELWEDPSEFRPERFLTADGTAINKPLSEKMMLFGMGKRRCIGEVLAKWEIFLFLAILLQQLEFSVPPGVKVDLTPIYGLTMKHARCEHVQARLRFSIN

Cytochrome P450 2D6 = Cytochrome P450 2D6 (Homo sapiens, UniProt P10635); test: Inhibition of CYP2D6 in human liver microsomes; type: ADME, Microsome
[4] = Half life in rat at 1 mg/kg, iv; type: ADME, organism-based; design: dose 1 mg/kg, route intravenous; conditions: in vivo
[5] = Clearance in rat at 1 mg/kg, iv; type: ADME, organism-based; design: dose 1 mg/kg, route intravenous; conditions: in vivo
[6] = Volume of distribution at steady state in rat at 1 mg/kg, iv; type: ADME, organism-based; design: dose 1 mg/kg, route intravenous; conditions: in vivo, read-out: Vdss
[7] = Metabolic stability of the compound in rat plasma assessed as compound remaining after 1 hr; type: ADME, cell-free; conditions: read-out: Stability
[8] = Inhibition of L-type calcium channel at 10 uM
[9] = target: T4, Solute carrier family 12 member 2 (Homo sapiens, UniProt P55011); test: Antagonist activity at […] expressed in human HEK293 cells assessed as [86Rb] uptake after 30 mins by scintillation counting; type: functional, cell-based
T4 sequence (P55011 whole entry): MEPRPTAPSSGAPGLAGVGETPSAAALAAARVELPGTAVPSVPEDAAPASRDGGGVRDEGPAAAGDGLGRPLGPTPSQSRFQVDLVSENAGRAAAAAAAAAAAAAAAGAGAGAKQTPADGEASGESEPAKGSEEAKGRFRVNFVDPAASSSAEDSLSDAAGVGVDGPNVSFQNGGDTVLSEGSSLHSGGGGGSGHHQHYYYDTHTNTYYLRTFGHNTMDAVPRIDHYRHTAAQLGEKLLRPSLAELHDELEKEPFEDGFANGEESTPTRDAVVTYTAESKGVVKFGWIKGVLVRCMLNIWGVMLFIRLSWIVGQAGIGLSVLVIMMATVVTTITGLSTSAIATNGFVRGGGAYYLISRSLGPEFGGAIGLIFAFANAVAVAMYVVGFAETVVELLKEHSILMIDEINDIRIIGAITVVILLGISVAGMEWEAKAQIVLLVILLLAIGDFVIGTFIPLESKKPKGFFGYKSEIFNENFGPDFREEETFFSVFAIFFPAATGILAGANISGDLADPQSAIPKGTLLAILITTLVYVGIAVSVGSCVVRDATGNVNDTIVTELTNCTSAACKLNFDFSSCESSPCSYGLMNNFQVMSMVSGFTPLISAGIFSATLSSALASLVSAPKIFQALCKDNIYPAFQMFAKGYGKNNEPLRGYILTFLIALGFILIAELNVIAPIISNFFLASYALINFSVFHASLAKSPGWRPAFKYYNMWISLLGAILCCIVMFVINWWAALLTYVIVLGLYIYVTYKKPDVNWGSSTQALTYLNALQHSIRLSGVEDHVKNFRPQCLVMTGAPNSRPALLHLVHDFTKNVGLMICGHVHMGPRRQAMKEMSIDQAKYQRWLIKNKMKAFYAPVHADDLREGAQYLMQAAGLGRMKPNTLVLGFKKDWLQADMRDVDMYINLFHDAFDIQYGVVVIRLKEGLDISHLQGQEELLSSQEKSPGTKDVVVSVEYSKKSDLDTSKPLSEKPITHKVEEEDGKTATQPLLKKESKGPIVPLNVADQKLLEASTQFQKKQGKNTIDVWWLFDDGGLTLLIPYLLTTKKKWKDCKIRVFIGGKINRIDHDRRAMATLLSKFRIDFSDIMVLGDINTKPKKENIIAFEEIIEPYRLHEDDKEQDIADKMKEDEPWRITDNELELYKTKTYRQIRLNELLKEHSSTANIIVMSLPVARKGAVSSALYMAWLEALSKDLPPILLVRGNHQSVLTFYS

hERG (KCNH2) = hERG (KCNH2) (Homo sapiens, UniProt Q12809); test: Inhibition of human Erg at 10 uM
Plasma [10] = test: Fraction unbound in human plasma; type: ADME, cell-free
Cytochrome P450 3A4 = Cytochrome P450 3A4 (Homo sapiens, UniProt P08684); test: Inhibition of CYP3A4 in human liver microsomes; type: ADME, Microsome
Plasma [11] = test: Fraction unbound in rat plasma; type: ADME, cell-free
[12] = target: T5, Solute carrier family 12 member 2 (Homo sapiens) (UniProt P55011); test: Antagonist activity at […] expressed in human HEK293 cells assessed as [86Rb] uptake at 50 uM after 30 mins by scintillation counting; type: functional, cell-based; design: scale not given: the % may be the effect or the level left
T5 sequence (whole entry): T4 sequence (P55011 whole entry)

Sequence of Cytochrome P450 2C9 (P11712 whole entry): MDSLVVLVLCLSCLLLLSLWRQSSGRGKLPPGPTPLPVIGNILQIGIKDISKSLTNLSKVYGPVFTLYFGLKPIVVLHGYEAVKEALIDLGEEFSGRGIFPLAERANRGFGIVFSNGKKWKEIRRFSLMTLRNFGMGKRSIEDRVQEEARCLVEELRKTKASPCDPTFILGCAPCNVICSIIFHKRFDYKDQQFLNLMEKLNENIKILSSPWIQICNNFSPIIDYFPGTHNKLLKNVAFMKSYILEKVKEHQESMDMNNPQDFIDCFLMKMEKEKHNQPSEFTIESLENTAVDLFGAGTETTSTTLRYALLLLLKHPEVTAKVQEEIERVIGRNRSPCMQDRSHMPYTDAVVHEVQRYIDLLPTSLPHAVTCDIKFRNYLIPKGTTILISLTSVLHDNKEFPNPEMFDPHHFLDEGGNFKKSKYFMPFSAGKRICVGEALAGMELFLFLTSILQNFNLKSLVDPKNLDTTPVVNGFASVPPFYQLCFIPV
Sequence of Cytochrome P450 2D6 (P10635 whole entry): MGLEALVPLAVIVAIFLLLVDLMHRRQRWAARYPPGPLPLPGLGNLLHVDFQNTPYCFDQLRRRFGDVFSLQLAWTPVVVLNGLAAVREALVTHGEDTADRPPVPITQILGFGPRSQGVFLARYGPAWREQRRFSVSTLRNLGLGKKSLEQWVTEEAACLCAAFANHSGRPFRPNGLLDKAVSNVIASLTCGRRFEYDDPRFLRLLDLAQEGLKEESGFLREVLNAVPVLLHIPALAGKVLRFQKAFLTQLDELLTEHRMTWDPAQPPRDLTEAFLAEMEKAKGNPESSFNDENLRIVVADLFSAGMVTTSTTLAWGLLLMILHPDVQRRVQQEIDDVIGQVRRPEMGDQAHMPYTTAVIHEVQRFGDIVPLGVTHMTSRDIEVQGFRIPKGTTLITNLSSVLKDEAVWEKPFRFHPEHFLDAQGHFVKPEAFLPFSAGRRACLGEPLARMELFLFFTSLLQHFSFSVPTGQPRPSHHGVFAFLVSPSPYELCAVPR
Sequence of Cytochrome P450 3A4 (P08684 whole entry): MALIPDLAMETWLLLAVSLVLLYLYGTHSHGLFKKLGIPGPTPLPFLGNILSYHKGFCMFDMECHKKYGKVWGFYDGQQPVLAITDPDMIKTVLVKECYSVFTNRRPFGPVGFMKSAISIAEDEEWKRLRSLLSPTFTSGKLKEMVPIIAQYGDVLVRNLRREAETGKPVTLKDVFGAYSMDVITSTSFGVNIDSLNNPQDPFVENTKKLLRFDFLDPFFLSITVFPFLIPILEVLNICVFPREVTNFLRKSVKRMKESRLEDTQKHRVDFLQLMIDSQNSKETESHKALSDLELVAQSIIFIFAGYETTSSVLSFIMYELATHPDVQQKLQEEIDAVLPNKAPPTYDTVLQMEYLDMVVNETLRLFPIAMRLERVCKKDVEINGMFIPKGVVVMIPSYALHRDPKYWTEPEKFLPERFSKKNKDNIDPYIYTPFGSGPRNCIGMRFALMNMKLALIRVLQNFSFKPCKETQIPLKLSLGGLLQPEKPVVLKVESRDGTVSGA
Sequence of hERG (KCNH2) (Q12809 whole entry): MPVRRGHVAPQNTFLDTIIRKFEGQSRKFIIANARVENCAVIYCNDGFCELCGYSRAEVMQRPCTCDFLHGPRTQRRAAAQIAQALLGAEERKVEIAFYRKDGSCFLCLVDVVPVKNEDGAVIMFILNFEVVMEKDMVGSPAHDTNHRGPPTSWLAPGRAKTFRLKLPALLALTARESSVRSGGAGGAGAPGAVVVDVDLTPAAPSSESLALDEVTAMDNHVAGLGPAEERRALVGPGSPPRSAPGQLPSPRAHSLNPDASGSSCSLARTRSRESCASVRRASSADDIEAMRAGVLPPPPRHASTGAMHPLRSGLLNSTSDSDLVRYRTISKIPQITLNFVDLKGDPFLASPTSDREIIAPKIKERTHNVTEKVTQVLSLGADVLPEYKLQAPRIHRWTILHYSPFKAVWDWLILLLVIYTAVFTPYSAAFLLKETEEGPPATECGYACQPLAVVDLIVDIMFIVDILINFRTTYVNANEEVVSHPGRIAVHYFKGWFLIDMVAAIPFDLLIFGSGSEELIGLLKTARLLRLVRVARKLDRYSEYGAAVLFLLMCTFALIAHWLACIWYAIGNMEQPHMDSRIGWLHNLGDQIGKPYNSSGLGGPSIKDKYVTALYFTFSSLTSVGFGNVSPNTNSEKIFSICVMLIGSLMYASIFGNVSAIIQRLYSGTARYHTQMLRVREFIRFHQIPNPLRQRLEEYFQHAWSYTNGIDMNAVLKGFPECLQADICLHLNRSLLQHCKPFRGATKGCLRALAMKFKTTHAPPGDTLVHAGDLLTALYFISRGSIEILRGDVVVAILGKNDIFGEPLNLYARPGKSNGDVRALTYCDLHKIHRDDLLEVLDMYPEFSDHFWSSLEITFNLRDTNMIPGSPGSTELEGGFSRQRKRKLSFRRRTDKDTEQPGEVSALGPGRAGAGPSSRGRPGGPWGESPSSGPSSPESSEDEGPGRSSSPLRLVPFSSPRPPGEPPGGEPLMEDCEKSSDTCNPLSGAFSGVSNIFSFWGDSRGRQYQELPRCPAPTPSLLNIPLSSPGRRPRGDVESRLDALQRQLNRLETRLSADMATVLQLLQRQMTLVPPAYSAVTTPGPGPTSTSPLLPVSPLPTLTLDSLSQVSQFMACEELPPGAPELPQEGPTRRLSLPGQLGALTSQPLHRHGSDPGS

Structure (SMILES): Cc1csc(N(C(=O)CSc2ccc(-c3ccccc3)nn2)C2CCC2)n1
- pIC50 [1]: 6.75

Structure (SMILES): CCN(C(=O)C(C)Sc1ccc(-c2ccccc2)nn1)c1nc(C)cs1 (racemic)
- inhibition [2]: 57%

Structure (SMILES): Cc1csc(N(C(=O)CSc2ccc(-c3ccccc3)nn2)C2CC2)n1
- Activity [3]: Active
- pIC50 (Cytochrome P450 2C9): < 4.52
- pIC50 (Cytochrome P450 1A2): 4.70
- pIC50 [1]: 7.21
- pIC50 (Cytochrome P450 2D6): < 4.52
- half-life [4]: 9 min
- clearance [5]: 57 mL/min/kg
- Vd [6]: 0.4 L/kg
- remaining at 1 h [7]: 6%

Structure (SMILES): CCC(Sc1ccc(-c2ccccc2)nn1)C(=O)N(c1nc(C)cs1)C1CC1 (single isomer, unassigned; (-))
- inhibition [2]: 40%

Structure (SMILES): CCC(Sc1ccc(-c2ccccc2)nn1)C(=O)N(c1nc(C)cs1)C1CC1 (racemic) [listing 1 of 2 here]
- inhibition [2]: 84%

Structure (SMILES): Cc1csc(NC(=O)CSc2ccc(-c3ccccc3)nn2)n1
- inhibition [8]: > 50%
- pIC50 [1]: 6.25
- pIC50 [9]: < 4.30
- inhibition at 10 µM (hERG (KCNH2)): > 50%

Structure (SMILES): CCC(Sc1ccc(-c2ccccc2)nn1)C(=O)N(c1nc(C)cs1)C1CC1 (single isomer, unassigned; (+))
- pIC50 [1]: 6.41

Structure (SMILES): CCC(Sc1ccc(-c2ccccc2)nn1)C(=O)N(c1nc(C)cs1)C1CC1 (racemic) [listing 2 of 2 here]
- pIC50 [1]: 6.12

Structure (SMILES): CCC(Sc1ccc(-c2ccccc2)nn1)C(=O)N(C)c1nc(C)cs1 (racemic)
- inhibition [2]: 27%

Structure (SMILES): Cc1csc(N(C)C(=O)C(C)Sc2ccc(-c3ccccc3)nn2)n1 (racemic)
- inhibition [2]: 46%

Structure (SMILES): Cc1csc(NC(=O)CSc2ccc(-c3ccccc3)cn2)n1
- pIC50 [1]: 5.16

Structure (SMILES): Cc1csc(N(C(=O)CSc2ccc(-c3ccccc3)nn2)C2CCCC2)n1
- pIC50 [1]: 5.98

Structure (SMILES): Cc1csc(N(C)C(=O)CSc2ccc(-c3ccccc3)nn2)n1
- Activity [3]: Active
- Fu (Plasma [10]): 2%
- pIC50 (Cytochrome P450 3A4): < 4.52
- pIC50 (Cytochrome P450 2C9): < 4.52
- pIC50 (Cytochrome P450 1A2): < 4.52
- pIC50 [1]: 6.27
- Fu (Plasma [11]): 1%
- pIC50 (Cytochrome P450 2D6): 4.62
- half-life [4]: 26 min
- clearance [5]: 185 mL/min/kg
- pIC50 [9]: < 4.30
- Vd [6]: 5 L/kg
- inhibition [2]: 82%

Structure (SMILES): CCC(Sc1ccc(-c2ccccc2)nn1)C(=O)N(CC)c1nc(C)cs1 (racemic)
- inhibition [2]: 45%

Structure (SMILES): Cc1csc(N(C)C(=O)CSc2ccc(-c3ccccc3)cn2)n1
- pIC50 [1]: 5.54

Structure (SMILES): O=C(Cn1cnc2c(nnn2Cc2ccccc2)c1=O)c1ccc(Cl)cc1
- Activity [12]: 40%
- pIC50 [1]: 5.92
